# Measurements reported in US20230330125A1, “ORAL COMPOSITION COMPRISING S-ADENOSYL METHIONINE AND A PROBIOTIC AND ITS USE FOR TREATING AND/OR PREVENTING MOOD DISORDERS” (Montefarmaco OTC S.p.A., priority 2020, published 2023).
# Experiments:
# [1] = tested on: Lactobacillus helveticus R0052; assay: Liquid compatibility method (pH monitoring of strain growth with SAMe); type: cell-based
# Description: The study was carried out in a first phase with SAMe+Lactobacillus helveticus R0052, not microencapsulated, through a liquid compatibility method. The initial population tested was 15.10^E9 CFU/g units at 500 mg of SAMe. For this evaluation a pHmeter with 8 probes was used, and values were verified every 15 minutes.
# The strains are inoculated into a liquid medium suitable for their growth, only under […] conditions (reason why in this way the Bifidobacterium is not tested), and the active substance is inoculated into the sample and not into the control.
# From an operational point of view: the vial is filled with the liquid medium (50 ml RCM); the active, which should have been tested directly in its granulated form in the vial, is added, and it is mixed. Then the pH of the medium in the presence of the active is verified, if necessary, the pH is adjusted so that it is comprised between 6.5 and 7. R0052 strain is therefore inoculated (batch U12171600, 500.10^E9 CFU/g) into the vial. The sample is diluted 1/100 with Dilumat to obtain a dilution to 5.10^E9 CFU/ml and finally it is inoculated with 3 ml into the 50 ml RCM vial, obtaining […]. The vial is placed in warm bath, at 37°, and the pH started to be recorded for 18 hours.
# [2] = tested on: R0052 probiotic strain; assay: Microbiological test, CFU count in Petri dish with SAMe; type: cell-based, Lactobacillus helveticus; settings: SAMe marketed formulation 500 mg dose, vs probiotic strain only
# Description: (§1) 1.2 MICROBIOLOGICAL TEST: within the bio-compatibility study a microbiological evaluation was carried out. R0052 and R0175 probiotic strains were cultured in a Petri dish, in the presence of the active (SAMe, marketed formulation) at a 500 mg dose (as above). A sample was also analyzed as a reference of probiotic strain only, so that it could be compared with the addition of the active on the result in Colony-Forming Units (CFU). […] This is easily justified by the simple analytical error, known in the microbiological field.
# [3] = tested on: R0175 probiotic strain; assay: as above; type: cell-based, Bifidobacterium longum; settings: SAMe marketed formulation 500 mg dose, vs probiotic strain only
# Description: as §1
# [4] = cited from earlier work
smiles,measurement,setting,value
"C[S+](CC[C@H](N)C(=O)O)C[C@H]1O[C@@H](n2cnc3c(N)ncnc32)[C@H](O)[C@@H]1O (some centres unmarked) [SAMe, S-adenosyl methionine]","pH of medium, R0052 in contact with SAMe, final","[1]; 500 mg SAMe, RCM medium, 37°, after pH decrease over 18 hours recording",4.2
same,"pH of medium, R0052 in contact with SAMe, initial","[1]; 500 mg SAMe, RCM medium, 37°, start of 18 hours recording",7.2
same,Compatibility of L. helveticus R0052 strain with SAMe,[1]; conclusion from acidification,compatible
same,pH of the active (SAMe) alone,"[1]; without strain, RCM medium, 37°, remains essentially unchanged",7-7.5
same,Modification of CFU count,[2],up to 5%
same,Modification of CFU count,[3],up to 5%
same,Plasma levels of the unmodified molecule,[4]; oral intake,5-10 % of the administered dose
same,Plasma bioavailability,[4]; parenteral (intravenous or intramuscular) route,90-100 % of the administered dose
